In PubChem BioAssay (NCI):
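48-hour exposure; five concentrations; linearly interpolated endpoints. GI50 marks 50% less growth. TGI marks complete inhibition of growth.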

Legend:
Assay in all cases: NCI tumour cell line growth inhibition, 48 h
KM20L2 colon = test system: KM20L2 colon
DLD-1 colon = test system: DLD-1 colon
LXFL 529 NSCLC = test system: LXFL 529 NSCLC
RXF-631 renal = test system: RXF-631 renal
DMS 273 small cell lung = test system: DMS 273 small cell lung
DMS 114 small cell lung = test system: DMS 114 small cell lung
SNB-78 CNS = test system: SNB-78 CNS
MDA-N = test system: MDA-N
XF 498 CNS = test system: XF 498 CNS
SN12K1 renal = test system: SN12K1 renal
P388/ADR leukemia = test system: P388/ADR leukemia

Compound	TGI (KM20L2 colon) [µM]	TGI (DLD-1 colon) [µM]	TGI (LXFL 529 NSCLC) [µM]	TGI (RXF-631 renal) [µM]	TGI (DMS 273 small cell lung) [µM]	TGI (DMS 114 small cell lung) [µM]	TGI (SNB-78 CNS) [µM]	TGI (XF 498 CNS) [µM]	also measured
Cc1ccc(C)c(N2C(=O)C(=O)C(c3nc4ccccc4o3)C(=O)C2=O)c1	> 100	65.6	> 100	> 100	> 100	> 100	> 100		
C1CN(c2nnc(N3CCC3)nn2)C1	> 63.7	> 100	44		> 60.2	43.6	> 100	46.1	TGI (MDA-N): 31 µM
COc1ccc2nc(C(=O)c3ccccc3)c(C)cc2c1	11	> 66.7	> 100	> 100	63.5	20.5	> 100	19.9	
O=C(C(=O)n1ncc(Cl)c(Cl)c1=O)n1ncc(Cl)c(Cl)c1=O	> 85.8	32.4	41.8	> 100	44.5	> 62.8	88.2	> 93	
Cc1c(C(=O)O)n(C)c(=O)n(C)c1=O	> 100	> 100	> 100		> 100			> 100	
Cc1cccc(C(=O)O)c1C(=O)c1cccc2ccccc12	> 100	> 100	> 100		> 100	> 100	> 100		
CCOC(=O)c1cc(-c2ccc(-c3cc(C(=O)OCC)c(C#N)c(N)c3C#N)cc2)c(C#N)c(N)c1C#N	> 100	> 100	> 100	> 100	> 100	> 100	> 100	> 100	
N#CC(C(=O)CCCC(=O)Nc1ccc(Cl)cc1Cl)c1ccccc1 (centres undefined)	> 100	> 100		> 100	> 100	> 100	> 100		
CC(C)c1cc(C(C)C)c(S(=O)(=O)N=[N+]=[N-])c(C(C)C)c1	> 100	> 100	> 100	> 100	> 100			> 100	
CCCCCC(=O)Nc1nc2nc[nH]c2c(=O)[nH]1	> 100	> 100	> 100		> 100	> 100	> 100	> 100	
O=C(O)/C(Cc1cn[nH]n1)=N\O									TGI (MDA-N): > 100 µM
COCCOc1cc(C)cc(/C=C(C)/C=C/C2=C(C)CCCC2(C)C)n1		> 100	> 100	> 100	> 100	> 100	> 100	> 100	
NC1c2ccccc2Nc2ccccc21	14.3	17.1	17.5		25.7	12.5	37.3	11.9	
CCOC(=O)/C(=C/c1cccc(Cl)c1)N(CC)CC		> 100	> 100			> 100		> 100	
CCCCCC(O)C(O)CCC[C@H](O)[C@H]1CC[C@H]([C@H]2CC[C@H]([C@H](O)CCCCCCCCCCCCC3=C[C@H](C)OC3=O)O2)O1 (some centres undefined)									GI50 (MDA-N): 4.19 µM; TGI (MDA-N): 23.5 µM
CC1OC(=O)C(O)=C1O (centres undefined)	> 100		> 100		> 100		> 100	> 100	
O=C(O)/C(Cc1ccnc2ccccc12)=N\O									TGI (MDA-N): > 100 µM
COC1CC(O)C(OC(=O)c2ccccc2)C(C)O1 (centres undefined)	> 100			> 100	> 100		> 100	> 100	
Cc1ccc(N=C[N-]c2ccc(C)cc2)cc1.Cc1ccc(N=C[N-]c2ccc(C)cc2)cc1.O=C([O-])C(F)(F)F.O=C([O-])C(F)(F)F.[OH3+].[OH3+].[Rh+2].[Rh+2]	> 100	> 100	74.2	> 100	> 100	> 100	> 100	59.4	GI50 (KM20L2 colon): 39.9 µM; GI50 (XF 498 CNS): 22.5 µM; GI50 (DLD-1 colon): 56.7 µM; GI50 (LXFL 529 NSCLC): 28.4 µM; GI50 (RXF-631 renal): > 100 µM; GI50 (DMS 273 small cell lung): 80.2 µM; GI50 (DMS 114 small cell lung): 38.4 µM; GI50 (SNB-78 CNS): 53.3 µM
C#CC1=CC(=O)C(OC)=CC1=O									TGI (MDA-N): 37.6 µM
CN(C)CC1CC/C(=C\c2ccc3c(c2)OCO3)C1=O (centres undefined)	36.5	40.3	25.4	31.2	30.9	37.3	51	32.7	TGI (MDA-N): 15.6 µM

Compound	TGI (KM20L2 colon) [µM]	TGI (DLD-1 colon) [µM]	TGI (LXFL 529 NSCLC) [µM]	TGI (RXF-631 renal) [µM]	TGI (DMS 273 small cell lung) [µM]	TGI (DMS 114 small cell lung) [µM]	TGI (SNB-78 CNS) [µM]	TGI (XF 498 CNS) [µM]	also measured
CN1Cc2ccccc2/C=C\c2ccccc21									TGI (MDA-N): > 100 µM
CSc1cnc2ccccc2c1Sc1c[nH]c2ccccc2c1=O	15.9	> 80.7	46.3		> 45.5	32.9	> 100		
CCC[CH2][Sn]([CH2]CCC)([S]C#N)[S]C#N	3.6	2.23	0.749	1.43	4.21	2.68	2.51	1.98	GI50 (KM20L2 colon): 1.78 µM; GI50 (XF 498 CNS): 0.779 µM; GI50 (DLD-1 colon): 0.999 µM; GI50 (LXFL 529 NSCLC): 0.122 µM; GI50 (RXF-631 renal): 0.329 µM; GI50 (DMS 273 small cell lung): 1.63 µM; GI50 (DMS 114 small cell lung): 0.506 µM; GI50 (SNB-78 CNS): 0.663 µM
CCC(C)CC(C)CC(C)/C=C(\C)C1=C(C)CC(C)(O)O1 (centres undefined)		> 100	> 100	> 100	> 100	> 100	> 100		
N#Cc1ccccc1NC(=O)C(=O)C1NC(=S)NC1=O (centres undefined)	> 100	> 100	> 100			> 100		> 100	
COc1ccc2oc3c(OC)c(OC)c(OC)cc3c(=O)c2c1	> 100	> 100	> 100	> 100	> 100	> 100	> 100	> 100	
Cc1ccc(NC(=O)C(=O)CC(=O)c2c(C)n([O-])c3ccccc3[n+]2=O)cc1C	> 100		> 100		> 100		> 100		
C1CCCCc2nc3c(nc2CCC1)c1nc2c(nc1c1nc4c(nc31)CCCCCCCC4)CCCCCCCC2	> 100	> 100	> 100	> 100			> 100		
COc1ccc(C2=Nc3ccccc3SC(C)C2)cc1OC (centres undefined)	33.6		32	> 100	34.8	34.8	66.7	32.8	
CS(=O)(=O)OCCCNCCCOS(C)(=O)=O	5860	9100			1150	3630	8530	2600	TGI (SN12K1 renal): 2320 µM; TGI (P388/ADR leukemia): 8330 µM
COc1cc2c(c(OC)c1OC)-c1ccc(SC)c(=O)cc1[C@@H](NCc1ccc([N+](=O)[O-])cc1)CC2	0.00435	> 100	> 100		1.06	0.00735	> 100		
Cc1ccc([N+](=O)[O-])c2c(NCCNC(=O)c3cc(C(=O)NCCNc4ccnc5c(C)ccc([N+](=O)[O-])c45)n(C)n3)ccnc12									TGI (MDA-N): > 58 µM
CCCCCCCC1(c2ccc(N)cc2)CCC(=O)NC1=O (centres undefined)	> 100	> 100	> 100	> 100	73.8	85.3	> 100	75.2	
COc1ccc(C)cc(=O)c1O	> 100	> 100	> 100		> 100	50.4	> 100		
O=[N+]([O-])c1ccc(Cl)c(CNc2ncnc3c2ncn3C2CCCCO2)c1 (centres undefined)									TGI (MDA-N): 27 µM
CCN(CC)CC1CCCCN1CC(=O)N1CC(C)C(=O)Nc2ccccc21 (centres undefined)	> 100	> 100	> 100		> 100	> 100			
Nc1nc2c(C(=O)NCc3cccs3)nnn2c2cccc(Cl)c12									TGI (MDA-N): > 100 µM
COc1cc(/C=C/c2ccc(O)c(OC)c2)cc(OC)c1									TGI (MDA-N): 46 µM
CC1=C(SC#N)S(=O)(=O)N(c2ccccc2)C(C)=C1SC#N		> 100	> 100		> 100	38.3	> 100	72.3	
CCOC(=O)C(Cc1ccc(N(CCCl)CCCl)cc1)NC(=O)C(Cc1ccccc1)NC=O (centres undefined)									TGI (MDA-N): 0.338 µM
